# Values of other authors, collected in publication PMC7365463, “Oxfendazole mediates macrofilaricidal efficacy against the filarial nematode Litomosoides sigmodontis in vivo and inhibits Onchocerca spec. motility in vitro” (PLoS Neglected Tropical Diseases, 2020).
# Like-named read-outs stand apart in the source and are kept apart here.
# How the values were obtained:
# [1] = system: Brugia malayi; set-up: method as in Maeda 1988 (Ref. 14); conditions: 150-200L3 (SC), jird, IP 20mg/kg 5 cons. days, 9 months p.i., necropsy 5 weeks p.t.; ref Maeda 1988 (Ref. 14); cited from earlier work
# [2] = system: Acanthocheilonema viteae; set-up: method as in Denham 1980 (Ref. 6); conditions: 80L3, jirds, SC 100mg/kg 5 cons. days, ref Denham 1980 (Ref. 6), cited from earlier work
# [3] = rats; cited from earlier work
Compound,Reduction of worm burden [1],"Reduction of worm burden ([2]; 6 to 10 days p.i., necropsy 73-75 days p.t.)","Reduction of worm burden ([2]; 42-46 days p.i., necropsy 39-40 days p.t.)","subacute toxicity, behavioral effects [3]"
COC(=O)Nc1nc2cc(C(=O)c3ccc(F)cc3)ccc2[nH]1 [flubendazole],100%,100%,100%,–
COC(=O)Nc1nc2ccc([S+]([O-])c3ccccc3)cc2[nH]1 (stereo not shown) [oxfendazole],–,–,–,did not raise safety concerns
